In patent US20030175769A1, “Reagents for improved PCR” (priority 2001, published 2003):

Legend:
[1] = test system: PCR amplification mixture; assay: Hot start effect when added to a PCR amplification mixture; format: biochemical
[2] = test system: plasmid containing the complete DPD cDNA; assay: Real time PCR signal intensity, FRET-HybProbe formate; format: biochemical; conditions: 0,1 g/μl compound
From the text: For this experiment, the primer mix according to example 3 was used. Various amounts of plasmid containing the complete DPD cDNA ranging from 0,4 to 40 fg were amplified with the primer mix by means of PCR under the conditions of example 3 in the presence or absence of […] compound III according to example 2.
For Real Time PCR detection, FRET-hybridization probes from the LightCycler Dihydropyrimidin-Dehydrogenase (DPD) mRNA quantification kit (Roche Molecular Biochemicals, cat. No. 3136957) were used in concentrations according to the manufacturer's instructions.

## O=C(O)C1=C/C(=C(/c2ccc(O)c(C(=O)O)c2)c2cc(Cc3ccc(O)c(C(=O)O)c3)c(O)c(C(=O)O)c2)C=CC1=O [Compound I]
[1]
  hot start effect: extensive hot start effect
[2]; 0,4 fg template DNA
  specific amplification signal (FIG. 3a): can only be obtained in presence of the additive
[2]; higher template concentrations (4 fg, 40 fg)
  specific signaling, cycle number of detection (FIG. 3b,c): detected at earlier cycle numbers
